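The compound was tested at five concentrations on cells cultured in 96-well plates, with a 48-hour exposure period. GI50 is the concentration that inhibits growth by half.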 Active and inactive are the calls of the source. Cut-off read from the data, not from the text of the source: active = GI50 up to about 1.1 µM and inactive = higher.
How the values were obtained:
Assay in all cases: DTP human tumour cell line panel, 48 h
ACHN = tested on: ACHN
CAKI-1 = tested on: CAKI-1
DU-145 = tested on: DU-145
EKVX = tested on: EKVX
HOP-62 = tested on: HOP-62
IGROV-1 = tested on: IGROV-1
KM12 = tested on: KM12
MCF7 = tested on: MCF7
MDA-MB-435 = tested on: MDA-MB-435
NCI-H460 = tested on: NCI-H460
OVCAR-4 = tested on: OVCAR-4
OVCAR-5 = tested on: OVCAR-5
PC-3 = tested on: PC-3
SF-268 = tested on: SF-268
SK-MEL-2 = tested on: SK-MEL-2
T47D = tested on: T47D
HL-60 = tested on: HL-60
SNB-75 = tested on: SNB-75

SMILES	GI50 (ACHN)	GI50 (CAKI-1)	GI50 (DU-145)	GI50 (EKVX)	GI50 (HOP-62)	GI50 (IGROV-1)	GI50 (KM12)	GI50 (MCF7)	GI50 (MDA-MB-435)	GI50 (NCI-H460)	GI50 (OVCAR-4)	GI50 (OVCAR-5)	GI50 (PC-3)	GI50 (SF-268)	GI50 (SK-MEL-2)	GI50 (T47D)	GI50 (HL-60)	GI50 (SNB-75)
CC(C)(NO)/C(=N\O)c1ccco1	> 100 µM (inactive)	> 100 µM (inactive)	> 100 µM (inactive)	> 100 µM (inactive)	> 100 µM (inactive)	> 100 µM (inactive)	> 100 µM (inactive)	> 100 µM (inactive)	> 100 µM (inactive)	> 100 µM (inactive)	> 100 µM (inactive)	> 100 µM (inactive)	> 100 µM (inactive)	> 100 µM (inactive)	> 100 µM (inactive)	> 100 µM (inactive)	–	–
COC(=O)C1=C(C(=O)OC)C(C(=O)c2ccccc2)N2N=C(c3ccc(Cl)cc3)C=CC12 (stereo unspecified)	> 100 µM (inactive)	> 100 µM (inactive)	> 100 µM (inactive)	8.81 µM (inactive)	> 100 µM (inactive)	–	13.1 µM (inactive)	75.7 µM (inactive)	9.44 µM (inactive)	37.1 µM (inactive)	19.2 µM (inactive)	> 100 µM (inactive)	9.82 µM (inactive)	6.55 µM (inactive)	> 100 µM (inactive)	> 100 µM (inactive)	3.85 µM (inactive)	–
CN(C)c1ccc2nc(CC(O)(C(F)(F)F)C(F)(F)F)ccc2c1	> 10 µM (inactive)	> 10 µM (inactive)	> 10 µM (inactive)	> 10 µM (inactive)	> 10 µM (inactive)	> 10 µM (inactive)	> 10 µM (inactive)	> 10 µM (inactive)	> 10 µM (inactive)	> 10 µM (inactive)	> 10 µM (inactive)	> 10 µM (inactive)	> 10 µM (inactive)	> 10 µM (inactive)	> 10 µM (inactive)	> 10 µM (inactive)	–	> 10 µM (inactive)
O=C(CN1C(=O)CC(c2ccccc2)(c2ccccc2)C1=O)N1CCN(CCO)CC1	> 100 µM (inactive)	> 100 µM (inactive)	> 100 µM (inactive)	> 100 µM (inactive)	> 100 µM (inactive)	> 100 µM (inactive)	> 100 µM (inactive)	> 100 µM (inactive)	> 100 µM (inactive)	–	> 100 µM (inactive)	> 100 µM (inactive)	> 100 µM (inactive)	> 100 µM (inactive)	> 100 µM (inactive)	> 100 µM (inactive)	–	> 100 µM (inactive)
CCOC(=O)NC(Nc1ncn(C(NC(=O)OCC)(C(F)(F)F)C(F)(F)F)n1)(C(F)(F)F)C(F)(F)F	> 100 µM (inactive)	> 100 µM (inactive)	> 100 µM (inactive)	> 100 µM (inactive)	> 100 µM (inactive)	> 100 µM (inactive)	> 100 µM (inactive)	> 100 µM (inactive)	> 100 µM (inactive)	> 100 µM (inactive)	> 100 µM (inactive)	> 100 µM (inactive)	> 100 µM (inactive)	> 100 µM (inactive)	–	49 µM (inactive)	> 100 µM (inactive)	> 100 µM (inactive)
COC1=C2CC(C)CC(OC)C(OC(=O)CN)[C@H](C)/C=C(\C)C(OC(N)=O)C(OC)/C=C\C=C(/C)C(=O)NC(=CC1=O)C2=O (stereo partly specified)	0.446 µM (active)	1.46 µM (inactive)	1.45 µM (inactive)	0.838 µM (active)	0.942 µM (active)	0.453 µM (active)	1.24 µM (inactive)	0.339 µM (active)	0.373 µM (active)	6.14 µM (inactive)	0.708 µM (active)	1.03 µM (active)	1.1 µM (active)	3.44 µM (inactive)	3.84 µM (inactive)	0.281 µM (active)	0.123 µM (active)	–
CC(=O)Oc1ccc2cc(-c3ccc(OC(C)=O)c(OC(C)=O)c3)c(=O)oc2c1	> 100 µM (inactive)	–	41.6 µM (inactive)	30.4 µM (inactive)	> 100 µM (inactive)	–	32.8 µM (inactive)	> 100 µM (inactive)	61.5 µM (inactive)	85.9 µM (inactive)	27.1 µM (inactive)	> 100 µM (inactive)	84.5 µM (inactive)	63.2 µM (inactive)	> 100 µM (inactive)	24.5 µM (inactive)	30.5 µM (inactive)	–
COc1ccc(/C(C)=N/OC(=O)c2c(-c3ccccc3Cl)noc2C)cc1CN1CCOCC1	15.7 µM (inactive)	20.7 µM (inactive)	38.3 µM (inactive)	–	19.1 µM (inactive)	21.1 µM (inactive)	22.4 µM (inactive)	20.8 µM (inactive)	20.8 µM (inactive)	29 µM (inactive)	29.4 µM (inactive)	12.8 µM (inactive)	24.2 µM (inactive)	30.8 µM (inactive)	16.4 µM (inactive)	16.4 µM (inactive)	17.1 µM (inactive)	28.4 µM (inactive)

Source: ChEMBL document CHEMBL1201862, “PubChem BioAssay data set” (2004)
